Data reported in patent publication US20240276978A1, “Method for Dispersing Live Predatory Mites of the Phytoseiulus Genus Which Are Used in Biocontrol” (Bioline Agrosciences France, priority 2020, published 2024).

Key:
[1] = Thickening agent solution equivalent to the standard; assay type: physicochemical; details: at concentration tested (g/L): alginate 10, modified corn starch 34, amylopectin 67, carrageenans 3, chitosan 100, dextrin 46, guar 2, xanthan 2, glycerol 860, konjac 4, Carbomer 940 4, Gel Maker EMU 4.4, PVP 60, carboxymethylcellulose 30, hydroxypropylcellulose 30, calcium chloride 280, potassium chloride 280, potassium sulfate 140
[2] = tested on: Phytoseiulus persimilis; assay: "Toxicity" of thickening agent to persimilis at 12 hours; assay type: in vivo; details: concentration tested (g/L): alginate 10, modified corn starch 34, carrageenans 3, guar 2, xanthan 2, glycerol 860, konjac 4, Carbomer 940 4, Gel Maker EMU 4.4, PVP 60, carboxymethylcellulose 30
Method: “Non-toxic” means less than 20% of biocontrol agents dead at the end of 12 hours.
A little solution containing the persimilis is kept in order to evaluate any possible “toxicity” at 12 hours.

Row | SMILES | Equivalent to the standard [1] | “Toxicity” [2]
1 | [Ca+2].[Cl-].[Cl-] [Calcium chloride] | No | –
2 | OCC(O)CO [Glycerol] | Yes | Yes
3 | [Cl-].[K+] [Potassium chloride] | No | –
4 | O=S(=O)([O-])[O-].[K+].[K+] [Potassium sulfate] | no | –
